The target of one data set is T1, Human HDAC2 (Homo sapiens, UniProt Q92769).
T1 construct: Full length with C-terminal His tag, MW=60 kDa; His (C); purchased BioMol SE-500; host or cells: baculovirus / Sf9 cells
Nature of the data set: In vitro HDAC2 inhibition, fluorogenic peptide substrate. The class given is biochemical. As to conditions: read-out: IC50 (μM) HDAC-2. The method, then:
(§1) In Vitro Inhibitory Activity of Histone Deacetylase: Human Isoforms HDAC1, 2, 3, 4, 5, 6, 7, 8, 9, 10 and 11 and HeLa Cell Line Nuclear Extract (IC50 Data)
(§2) All HDAC assays were performed using acetylated AMC-labeled peptide substrate: • Substrate for isoforms HDAC1, 2, 3, 6, 10, 11 and HeLa nuclear extract assays: Acetylated fluorogenic peptide from p53 residues 379-382 (RHKKAc). • Substrate for isoforms HDAC 4, 5, 7, 9: Fluorogenic Boc-L-Lys(ε-trifluoroacetyl)-AMC. • Substrate for HDAC8 assays: Acetylated fluorogenic peptide from p53 residues 379-382 (RHKAcKAc).
(§3) 50 μM of substrate peptide (see ‘substrate peptides’ section above) and an optimal concentration of the corresponding enzyme (see ‘enzymes’ section above) in the assay buffer and 1% final concentration of DMSO were incubated in the presence of gradient concentrations of inhibitors (10-dose IC50 mode with 3-fold serial dilution) at 30° C. for 2 h. The reactions were carried out in a 96-well microplate for fluorometry in a 50 μl reaction volume. After the deacetylation reaction, Fluor-de-Lys-Developer (BioMol Cat. # KI-105) was added to each well to digest the deacetylated substrate, thus producing the fluorescent signal. The reaction was allowed to develop for 45 minutes at 30° C. with 5% CO2; then the fluorescent signal was measured with an excitation wavelength at 360 nm and an emission wavelength at 460 nm in a microplate-reading fluorometer (GeminiXS; Molecular Devices, Sunnyvale, Calif.). A curve of Deacetylated Standard (Biomol, Cat. # KI-142; made from 100 μM with 1:2 dilution and 10-doses, 6 μl) allowed the conversion of fluorescent signal into micromoles of deacetylated product. All experiments were performed in triplicate. IC50 was calculated by fitting the experimental data to a dose-response curve. DMSO was used as negative control; Trichostatin A (Biomol Cat. # GR-309) was used as positive control inhibitor.

In a further data set the target is T2, Human HDAC10 (Homo sapiens, UniProt Q969S8).
T2 construct: Amino acids 1-631 with Nterminal GST tag, MW=96 kDa; GST (N); purchased BioMol SE-559; host or cells: baculovirus / Sf9 cells
T2 sequence (Q969S8 1-631): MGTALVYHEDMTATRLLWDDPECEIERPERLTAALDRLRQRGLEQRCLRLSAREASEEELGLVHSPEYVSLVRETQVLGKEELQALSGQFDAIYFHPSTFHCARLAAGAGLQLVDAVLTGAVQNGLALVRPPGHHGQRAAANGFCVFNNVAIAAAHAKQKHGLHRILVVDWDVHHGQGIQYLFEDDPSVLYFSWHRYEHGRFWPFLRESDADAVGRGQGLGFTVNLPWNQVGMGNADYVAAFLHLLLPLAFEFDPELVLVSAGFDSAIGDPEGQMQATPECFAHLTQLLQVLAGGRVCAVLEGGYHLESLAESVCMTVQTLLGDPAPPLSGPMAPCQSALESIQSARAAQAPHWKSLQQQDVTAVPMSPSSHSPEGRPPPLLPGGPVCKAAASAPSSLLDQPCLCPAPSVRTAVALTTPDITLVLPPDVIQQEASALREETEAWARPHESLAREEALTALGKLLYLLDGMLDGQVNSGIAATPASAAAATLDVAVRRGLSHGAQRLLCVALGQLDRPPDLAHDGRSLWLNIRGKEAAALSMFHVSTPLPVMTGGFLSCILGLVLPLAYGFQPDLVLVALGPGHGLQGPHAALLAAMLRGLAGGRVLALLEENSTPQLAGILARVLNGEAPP
As to the kind of experiment: In vitro HDAC10 inhibition, fluorogenic peptide substrate. It is filed as biochemical. As to conditions: read-out: IC50 (μM) HDAC-10. On the procedure:
as §1, §2, §3

The target in another data set is T3, Human HDAC5 (Homo sapiens, UniProt Q9UQL6).
T3 construct: Full length with Nterminal GST tag, MW=150 kDa; GST (N); purchased BioMol, Hamburg, Germany; host or cells: baculovirus / Sf9 cells
T3 sequence (Q9UQL6 1-1123 isoform Q9UQL6-3): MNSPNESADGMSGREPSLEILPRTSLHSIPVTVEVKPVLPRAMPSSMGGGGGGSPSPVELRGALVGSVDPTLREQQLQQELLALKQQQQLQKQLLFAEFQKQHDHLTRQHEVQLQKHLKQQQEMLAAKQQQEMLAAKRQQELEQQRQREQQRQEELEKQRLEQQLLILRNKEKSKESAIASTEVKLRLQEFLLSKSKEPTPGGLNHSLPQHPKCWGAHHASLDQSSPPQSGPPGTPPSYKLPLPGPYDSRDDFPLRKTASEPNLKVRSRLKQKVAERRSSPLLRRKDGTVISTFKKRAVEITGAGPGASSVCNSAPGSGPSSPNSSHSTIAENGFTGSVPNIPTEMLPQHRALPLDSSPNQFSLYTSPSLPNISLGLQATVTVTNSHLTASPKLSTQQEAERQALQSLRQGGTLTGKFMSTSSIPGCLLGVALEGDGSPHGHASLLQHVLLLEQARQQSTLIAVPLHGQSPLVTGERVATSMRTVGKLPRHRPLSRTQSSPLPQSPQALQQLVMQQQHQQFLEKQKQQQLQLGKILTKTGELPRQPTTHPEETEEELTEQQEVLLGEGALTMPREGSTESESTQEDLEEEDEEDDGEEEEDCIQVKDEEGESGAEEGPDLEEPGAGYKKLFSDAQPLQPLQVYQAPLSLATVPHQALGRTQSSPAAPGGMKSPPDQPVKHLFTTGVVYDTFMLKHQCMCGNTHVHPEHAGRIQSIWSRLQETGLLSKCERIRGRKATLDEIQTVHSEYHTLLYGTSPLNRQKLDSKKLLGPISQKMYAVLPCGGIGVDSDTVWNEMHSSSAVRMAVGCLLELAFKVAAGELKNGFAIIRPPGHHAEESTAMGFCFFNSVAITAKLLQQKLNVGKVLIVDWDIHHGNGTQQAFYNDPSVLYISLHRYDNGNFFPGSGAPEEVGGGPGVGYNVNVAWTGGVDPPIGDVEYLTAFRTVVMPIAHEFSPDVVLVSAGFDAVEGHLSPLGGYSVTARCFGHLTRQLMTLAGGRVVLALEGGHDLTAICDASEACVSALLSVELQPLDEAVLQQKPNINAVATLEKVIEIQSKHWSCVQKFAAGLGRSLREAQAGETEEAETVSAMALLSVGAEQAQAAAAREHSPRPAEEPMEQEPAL
As to the kind of experiment: In vitro HDAC5 inhibition, fluorogenic substrate. The following applies: read-out: IC50 (μM) HDAC-5. It is filed as biochemical. The method, then: as §1, §2, §3

A further data set has as its target T4, Human HDAC7 (Homo sapiens, UniProt Q8WUI4).
T4 construct: Amino acids 518-end with N-terminal GST tag, MW=78 kDa; GST (N); purchased BioMol, Hamburg, Germany; host or cells: baculovirus expression system
T4 sequence (Q8WUI4 518-952 limits assumed): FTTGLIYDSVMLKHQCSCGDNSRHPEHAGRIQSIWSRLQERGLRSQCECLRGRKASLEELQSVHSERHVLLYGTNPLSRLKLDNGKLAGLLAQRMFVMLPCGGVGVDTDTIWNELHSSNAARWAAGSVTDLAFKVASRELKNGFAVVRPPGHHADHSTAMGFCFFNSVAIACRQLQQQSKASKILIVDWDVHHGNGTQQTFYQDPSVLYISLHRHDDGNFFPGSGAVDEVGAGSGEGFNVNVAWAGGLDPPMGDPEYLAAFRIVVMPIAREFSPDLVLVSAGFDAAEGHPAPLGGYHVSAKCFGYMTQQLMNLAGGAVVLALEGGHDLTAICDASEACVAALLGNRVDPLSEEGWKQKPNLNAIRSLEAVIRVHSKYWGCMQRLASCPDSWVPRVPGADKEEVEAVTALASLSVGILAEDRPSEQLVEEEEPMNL
As to the kind of experiment: In vitro HDAC7 inhibition, fluorogenic substrate. The class given is biochemical. The following applies: read-out: IC50 (μM) HDAC-7. The method, then: as §1, §2, §3

The record followed here is patent US20160122340A1, “HISTONE DEACETYLASE INHIBITORS BASED ON DERIVATIVES OF TRICYCLIC POLYHYDROACRIDINE AND ANALOGS POSSESSING FUSED SATURATED FIVE-AND-SEVEN-MEMBERED RINGS” (QUIMATRYX, S.L., priority 2013, published 2016).

The term IC50 denotes the point on the concentration scale where inhibition reaches its midpoint. Usually melting point stands for the temperature, or range, at which the solid turns liquid.

T1 sequence (Q92769 whole entry): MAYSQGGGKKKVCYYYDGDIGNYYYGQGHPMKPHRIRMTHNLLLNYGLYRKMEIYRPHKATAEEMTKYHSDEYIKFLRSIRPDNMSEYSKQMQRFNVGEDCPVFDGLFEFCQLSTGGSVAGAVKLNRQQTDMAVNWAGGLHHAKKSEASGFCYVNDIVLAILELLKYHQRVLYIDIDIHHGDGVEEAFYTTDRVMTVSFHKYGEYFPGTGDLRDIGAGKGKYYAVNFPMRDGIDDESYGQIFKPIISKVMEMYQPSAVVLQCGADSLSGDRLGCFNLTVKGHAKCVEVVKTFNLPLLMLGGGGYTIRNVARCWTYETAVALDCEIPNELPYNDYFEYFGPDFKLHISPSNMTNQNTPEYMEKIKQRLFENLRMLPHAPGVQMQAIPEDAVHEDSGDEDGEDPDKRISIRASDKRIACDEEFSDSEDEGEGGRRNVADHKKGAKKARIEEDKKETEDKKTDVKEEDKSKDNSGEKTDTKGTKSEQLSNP

On to `O=C(CCCCCCNc1c2c(nc3ccccc13)CCCC2)NO` [Example 2, N-hydroxy-7-[(1,2,3,4-tetrahydroacridin-9-yl)amino]heptanamide], for which the melting point was in the range of 156 to 157 °C. Besides, the IC50 at Human HDAC2 is 0.75 µM. Besides, on Human HDAC10, the IC50 was determined as 0.71 µM. Also, the IC50 at Human HDAC5 stood at 0.44 µM. For the same compound, the IC50 at Human HDAC7 came to 0.77 µM.
`O=C(CCCCCCNC(=O)c1c2c(nc3ccccc13)CCCC2)NO` [Example 11, N-[7-(hydroxyamino)-7-oxoheptyl]-1,2,3,4-tetrahydroacridine-9-carboxamide] gave a melting point of 185 to 186 °C. Besides, at Human HDAC2, the IC50 was found to be 8.48 µM. Besides, the IC50 at Human HDAC10 was determined as 6.89 µM. Moreover, at Human HDAC5, the IC50 was determined as 4.24 µM. Also, on Human HDAC7, the IC50 is more than 5 µM.
The corresponding values for `O=C(CCCCCNC(=O)c1c2c(nc3ccccc13)CCCC2)NO` [Example 10, N-[6-(hydroxyamino)-6-oxohexyl]-1,2,3,4-tetrahydroacridine-9-carboxamide] are 187 to 188 °C, more than 5 µM, more than 5 µM, more than 5 µM and more than 5 µM.
On the same counts, the results for `O=C(CCCCCCNc1c2c(nc3ncccc13)CCCC2)NO` [Example 7, N-hydroxy-7-[(6,7,8,9-tetrahydrobenzo[b][1,8]naphthyridin-5-yl)amino]heptanamide] are 234 to 235 °C, 4.46 µM, 4.02 µM, more than 5 µM and more than 5 µM.
Consider `COc1cccc2c(NCCCCCCC(=O)NO)c3c(nc12)CCCC3` [Example 5, N-hydroxy-7-[(5-methoxy-1,2,3,4-tetrahydroacridin-9-yl)amino]heptanamide], for which the melting point was determined as 361 °C. For the same compound, on Human HDAC2, the IC50 is 1.84 µM. For the same compound, the IC50 at Human HDAC10 came out at 1.46 µM. On Human HDAC5, the IC50 is more than 5 µM. Also, the IC50 on Human HDAC7 is more than 5 µM.
The compound `O=C(CCCCCCNc1c2c(nc3ccccc13)CCCCC2)NO` [Example 4, N-hydroxy-7-[(7,8,9,10-tetrahydro-6H-cyclohepta[b]quinolin-11-yl)amino]heptanamide] yielded a melting point of 155 to 156 °C. In addition, the IC50 at Human HDAC2 turned out to be 1.92 µM. The IC50 on Human HDAC10 came to 1.13 µM. Further, the IC50 on Human HDAC5 is more than 5 µM. For the same compound, the IC50 at Human HDAC7 was more than 5 µM.
As for `O=C(CCCCCNc1c2c(nc3ccccc13)CCCC2)NO` [Example 1, N-hydroxy-6-[(1,2,3,4-tetrahydroacridin-9-yl)amino]hexanamide], the melting point was in the range of 162 to 164 °C. Also, the IC50 at Human HDAC2 is 6.09 µM. Moreover, the IC50 at Human HDAC10 came to 5.76 µM. The IC50 on Human HDAC5 amounted to 2.14 µM. Further, on Human HDAC7, the IC50 stood at 4.55 µM.
Turning to `O=C(CCCCCCNc1c2c(nc3ccccc13)CCC2)NO` [Example 3, 7-[(2,3-dihydro-1H-cyclopenta[b]quinolin-9-yl)amino]-N-hydroxyheptanamide], the melting point lay within 165 to 166 °C. In addition, the IC50 on Human HDAC2 came out at 0.77 µM. Further, the half-maximal inhibitory concentration (IC50) on Human HDAC10 is 0.51 µM. Further, on Human HDAC5, the IC50 was more than 5 µM. Also, on Human HDAC7, the IC50 was more than 5 µM.
`O=C(CCCCCCNc1c2c(nc3cnccc13)CCCC2)NO` [Example 8, N-hydroxy-7-[(6,7,8,9-tetrahydrobenzo[b][1,7]naphthyridin-5-yl)amino]heptanamide] gave a melting point of 56.7 °C. Further, at Human HDAC2, the IC50 came out at 2.41 µM. Besides, at Human HDAC10, the IC50 is 2.02 µM. The IC50 on Human HDAC5 is more than 5 µM. Besides, the IC50 on Human HDAC7 is more than 5 µM.
